Test results from patent US20160220557A1, “USE OF ACETYL-COA CARBOXYLASE INHIBITORS FOR TREATING ACNE VULGARIS” (PFIZER INC., priority 2013, published 2016).

Key:
CYP1A2 = biological target: T1, CYP1A2 (Homo sapiens, UniProt P05177); experiment: biochemical
T1 sequence (P05177 1-516): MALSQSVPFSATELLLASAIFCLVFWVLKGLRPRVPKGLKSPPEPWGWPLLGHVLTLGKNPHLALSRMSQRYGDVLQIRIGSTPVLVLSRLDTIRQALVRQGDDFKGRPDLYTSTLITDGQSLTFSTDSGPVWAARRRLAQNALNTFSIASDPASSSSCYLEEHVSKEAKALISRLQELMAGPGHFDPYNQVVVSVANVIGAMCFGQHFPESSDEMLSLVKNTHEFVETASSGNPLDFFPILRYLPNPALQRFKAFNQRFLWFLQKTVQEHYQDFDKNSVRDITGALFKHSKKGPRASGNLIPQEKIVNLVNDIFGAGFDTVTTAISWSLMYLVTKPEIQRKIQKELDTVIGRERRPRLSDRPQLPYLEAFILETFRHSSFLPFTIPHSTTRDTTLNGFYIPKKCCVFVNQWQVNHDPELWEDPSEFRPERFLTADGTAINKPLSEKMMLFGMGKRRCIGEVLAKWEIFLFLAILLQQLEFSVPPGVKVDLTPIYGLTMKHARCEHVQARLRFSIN

[1] = biological target: T2, recombinant human ACC2 (rhACC2) (Homo sapiens, UniProt O00763, V2141I); experiment: Transcreener ADP detection FP assay, recombinant human ACC2 inhibition; format: biochemical; conditions: recombinant human ACC2, 50 μM ATP; read-out: Transcreener Assay hACC2 IC50
T2 construct: made in house; host or cells: CHO cells, tetracycline-induced (pcDNA5 FRT TO-TOPO)

[2] = Human studies: safety, tolerability and pharmacokinetics after oral dosing; conditions: for median Tmax: oral
hACC1 = hACC1 (Homo sapiens, UniProt Q13085); experiment: Radiometric ACC1 inhibition assay; format: biochemical
[3] = system: SZ95 human sebocyte cells; experiment: Inhibition of de novo lipogenesis (14C-acetate incorporation) in cultured human sebocytes; format: cell-based; conditions: for IC50: Homo sapiens, SZ95 sebocytes, 14C-acetate incorporation into lipids relative to vehicle, read-out: C9302E Sebocyte IC50
Protocol: SZ95 sebocytes were grown in Human Sebocyte Growth Medium (HSGM) (Sebomed® medium (Biochrom: F8205) supplemented with 10% heat-inactivated fetal bovine serum, 1% penicillin/streptomycin, 1 mM calcium chloride and 5 ng/mL recombinant human epidermal growth factor (Life Tech: PHG0311)). At 90% confluence, cells were washed three times with PBS and then detached with 0.05% Trypsin-EDTA. Cells were centrifuged and resuspended in HSGM containing 10% charcoal-stripped serum (Life Tech: 12676-029). Cells were then plated in 24-well plates at a density of 0.25×10^6 cells/well and were incubated overnight to enable cell adherence to the culture plate.
Cells were treated with a dose response of compound, and each dose was assayed in triplicate. Briefly, compounds were dissolved in DMSO stocks and diluted 1:1000 into charcoal-stripped media. 0.1% DMSO without compound was used as the vehicle control. After a 1 hour preincubation with compound or vehicle, 0.25 μCi ^14C-acetic acid (American Radiolabeled Chemicals: ARC0158B) was added to each well. Plates were then incubated for an additional two hours. At the end of the incubation period, cells were removed from incubator, placed on ice, and then washed twice with ice-cold PBS to remove free ^14C-acetic acid. Plates were sealed and stored at −20° C. until analysis.
Plates were shaken for 1 hour at room temperature to induce lysis. Lysates were transferred to individual 1.5 mL polypropylene tubes, and wells were washed with 175 μl of PBS, which was added to lysates. 450 μl of a 1:1 (v/v) chloroform:methanol solution was then added to each tube, and then all tubes were vortexed for 10 seconds and centrifuged at 20,000×g for 5 minutes at room temperature to separate aqueous from organic phase. A 25 μl aliquot was removed from the bottom organic layer of each sample and added to 6 mL OptiPhase supermix (PerkinElmer: 1200-439) scintillation fluid. Counts of ^14C incorporated into lipids were assessed by scintillation counting. DNL (counts of ^14C incorporated into lipids) was expressed for compound treated cells relative to DNL in the vehicle control treated cells for determination of EC50 values. For a subset of the compounds tested, a second aliquot (3×35 μl) of the organic layer of each sample was removed and applied to a TLC lane (Analtech Silica Gel G Plates). Radiolabeled lipids were resolved using a 2-solvent system. Solvent 1 contained a 100:100:100:40:36 mixture of ethyl acetate:isopropyl alcohol:CHCl3:MeOH:0.25% KCl and solvent 2 a 70:27:3 hexane:diethyl ether:acetic acid mix. The TLC plate was dried under nitrogen for 30 minutes and [^14C]-calibrators added to a vacant lane. Bands were visualized and quantitated using a Molecular Dynamics' Storm 860 Phosphorimager system following 18-36 hours exposure to a Phosphorimager screen.

hACC2 = hACC2 (Homo sapiens, UniProt O00763); experiment: Radiometric ACC2 inhibition assay; format: biochemical
CYP2C8 = biological target: T3, CYP2C8 (Homo sapiens, UniProt P10632); experiment: P450 inhibition in liver microsomes with probe substrates; format: in vitro ADME
T3 construct: from tissue; host or cells: liver microsomes
T3 sequence (P10632 1-490): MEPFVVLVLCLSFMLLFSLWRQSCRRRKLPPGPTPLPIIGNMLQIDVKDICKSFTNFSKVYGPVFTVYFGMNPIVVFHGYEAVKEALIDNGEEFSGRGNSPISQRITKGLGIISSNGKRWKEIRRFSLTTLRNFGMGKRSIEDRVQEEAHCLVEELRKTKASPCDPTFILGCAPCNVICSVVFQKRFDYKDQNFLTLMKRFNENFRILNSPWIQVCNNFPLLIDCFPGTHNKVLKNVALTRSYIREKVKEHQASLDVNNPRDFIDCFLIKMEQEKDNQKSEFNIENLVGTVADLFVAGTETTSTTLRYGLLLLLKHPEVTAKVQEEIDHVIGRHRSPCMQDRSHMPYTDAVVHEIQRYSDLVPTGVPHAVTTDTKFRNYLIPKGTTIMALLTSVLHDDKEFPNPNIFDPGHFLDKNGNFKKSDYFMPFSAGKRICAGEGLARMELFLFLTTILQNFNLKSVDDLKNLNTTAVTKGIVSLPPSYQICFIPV

hACC2, sequence (O00763 whole entry): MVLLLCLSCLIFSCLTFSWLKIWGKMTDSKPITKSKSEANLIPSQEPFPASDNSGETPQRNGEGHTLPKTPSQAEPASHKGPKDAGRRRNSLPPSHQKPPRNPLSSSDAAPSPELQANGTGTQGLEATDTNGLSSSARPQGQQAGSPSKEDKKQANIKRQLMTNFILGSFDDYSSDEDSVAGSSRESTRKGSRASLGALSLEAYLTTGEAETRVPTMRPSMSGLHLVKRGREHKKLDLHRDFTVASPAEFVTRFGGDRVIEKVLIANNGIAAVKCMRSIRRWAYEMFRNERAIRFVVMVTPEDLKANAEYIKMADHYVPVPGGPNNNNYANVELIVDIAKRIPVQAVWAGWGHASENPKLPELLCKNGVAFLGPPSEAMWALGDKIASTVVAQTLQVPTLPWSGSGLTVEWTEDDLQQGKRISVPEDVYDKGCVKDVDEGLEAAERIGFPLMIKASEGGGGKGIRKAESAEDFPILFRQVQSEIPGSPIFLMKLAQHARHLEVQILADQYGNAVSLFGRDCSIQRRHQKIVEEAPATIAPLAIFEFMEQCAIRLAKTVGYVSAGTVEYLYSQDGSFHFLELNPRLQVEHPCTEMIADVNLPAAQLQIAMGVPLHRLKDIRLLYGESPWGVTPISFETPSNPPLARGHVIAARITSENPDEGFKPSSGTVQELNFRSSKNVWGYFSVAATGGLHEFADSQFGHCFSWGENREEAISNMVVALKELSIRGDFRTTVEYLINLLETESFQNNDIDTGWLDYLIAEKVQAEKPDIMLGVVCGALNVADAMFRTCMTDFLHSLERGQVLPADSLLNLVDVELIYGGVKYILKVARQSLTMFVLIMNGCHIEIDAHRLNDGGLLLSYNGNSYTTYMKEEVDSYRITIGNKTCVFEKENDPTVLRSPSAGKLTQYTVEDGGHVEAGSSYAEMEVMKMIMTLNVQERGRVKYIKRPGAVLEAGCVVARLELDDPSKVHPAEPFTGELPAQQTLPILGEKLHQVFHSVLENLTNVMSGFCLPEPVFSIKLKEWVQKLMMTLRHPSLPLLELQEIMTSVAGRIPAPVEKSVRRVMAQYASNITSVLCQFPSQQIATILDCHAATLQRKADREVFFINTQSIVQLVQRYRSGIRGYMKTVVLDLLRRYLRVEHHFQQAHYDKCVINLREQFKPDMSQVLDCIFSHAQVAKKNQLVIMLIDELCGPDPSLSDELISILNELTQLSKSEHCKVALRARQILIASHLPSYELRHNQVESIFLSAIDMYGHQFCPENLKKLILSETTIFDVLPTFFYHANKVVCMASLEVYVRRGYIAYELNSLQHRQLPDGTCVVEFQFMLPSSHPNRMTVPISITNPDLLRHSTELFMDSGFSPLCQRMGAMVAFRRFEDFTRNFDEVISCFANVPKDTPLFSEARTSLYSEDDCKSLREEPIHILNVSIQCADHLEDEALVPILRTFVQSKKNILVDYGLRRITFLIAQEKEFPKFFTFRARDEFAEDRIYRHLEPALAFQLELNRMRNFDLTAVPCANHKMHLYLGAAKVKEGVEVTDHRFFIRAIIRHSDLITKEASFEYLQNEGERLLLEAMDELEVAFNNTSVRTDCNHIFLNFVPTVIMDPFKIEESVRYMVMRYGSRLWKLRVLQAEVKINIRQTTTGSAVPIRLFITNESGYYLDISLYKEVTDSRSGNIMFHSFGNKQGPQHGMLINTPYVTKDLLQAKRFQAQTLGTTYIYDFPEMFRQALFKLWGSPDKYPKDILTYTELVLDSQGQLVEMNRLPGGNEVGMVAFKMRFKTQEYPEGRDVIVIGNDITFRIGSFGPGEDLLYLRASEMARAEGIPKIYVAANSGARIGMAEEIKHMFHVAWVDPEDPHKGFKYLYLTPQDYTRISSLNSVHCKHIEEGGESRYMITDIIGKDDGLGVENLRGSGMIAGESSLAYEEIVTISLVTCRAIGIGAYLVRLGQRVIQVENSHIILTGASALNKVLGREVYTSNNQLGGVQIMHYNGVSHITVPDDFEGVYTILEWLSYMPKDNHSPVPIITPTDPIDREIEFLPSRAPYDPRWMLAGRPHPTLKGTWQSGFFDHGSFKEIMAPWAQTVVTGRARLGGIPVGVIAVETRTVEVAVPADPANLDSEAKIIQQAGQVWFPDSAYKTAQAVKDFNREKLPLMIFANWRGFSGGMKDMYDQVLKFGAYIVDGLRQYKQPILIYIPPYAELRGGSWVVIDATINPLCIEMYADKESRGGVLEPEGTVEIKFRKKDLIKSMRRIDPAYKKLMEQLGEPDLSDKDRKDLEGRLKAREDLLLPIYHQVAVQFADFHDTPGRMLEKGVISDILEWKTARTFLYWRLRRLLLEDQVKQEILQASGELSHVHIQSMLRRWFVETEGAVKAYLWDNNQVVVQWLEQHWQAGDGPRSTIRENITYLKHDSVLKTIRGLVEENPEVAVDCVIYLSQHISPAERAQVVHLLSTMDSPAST
T2 sequence (O00763 whole entry V2141I): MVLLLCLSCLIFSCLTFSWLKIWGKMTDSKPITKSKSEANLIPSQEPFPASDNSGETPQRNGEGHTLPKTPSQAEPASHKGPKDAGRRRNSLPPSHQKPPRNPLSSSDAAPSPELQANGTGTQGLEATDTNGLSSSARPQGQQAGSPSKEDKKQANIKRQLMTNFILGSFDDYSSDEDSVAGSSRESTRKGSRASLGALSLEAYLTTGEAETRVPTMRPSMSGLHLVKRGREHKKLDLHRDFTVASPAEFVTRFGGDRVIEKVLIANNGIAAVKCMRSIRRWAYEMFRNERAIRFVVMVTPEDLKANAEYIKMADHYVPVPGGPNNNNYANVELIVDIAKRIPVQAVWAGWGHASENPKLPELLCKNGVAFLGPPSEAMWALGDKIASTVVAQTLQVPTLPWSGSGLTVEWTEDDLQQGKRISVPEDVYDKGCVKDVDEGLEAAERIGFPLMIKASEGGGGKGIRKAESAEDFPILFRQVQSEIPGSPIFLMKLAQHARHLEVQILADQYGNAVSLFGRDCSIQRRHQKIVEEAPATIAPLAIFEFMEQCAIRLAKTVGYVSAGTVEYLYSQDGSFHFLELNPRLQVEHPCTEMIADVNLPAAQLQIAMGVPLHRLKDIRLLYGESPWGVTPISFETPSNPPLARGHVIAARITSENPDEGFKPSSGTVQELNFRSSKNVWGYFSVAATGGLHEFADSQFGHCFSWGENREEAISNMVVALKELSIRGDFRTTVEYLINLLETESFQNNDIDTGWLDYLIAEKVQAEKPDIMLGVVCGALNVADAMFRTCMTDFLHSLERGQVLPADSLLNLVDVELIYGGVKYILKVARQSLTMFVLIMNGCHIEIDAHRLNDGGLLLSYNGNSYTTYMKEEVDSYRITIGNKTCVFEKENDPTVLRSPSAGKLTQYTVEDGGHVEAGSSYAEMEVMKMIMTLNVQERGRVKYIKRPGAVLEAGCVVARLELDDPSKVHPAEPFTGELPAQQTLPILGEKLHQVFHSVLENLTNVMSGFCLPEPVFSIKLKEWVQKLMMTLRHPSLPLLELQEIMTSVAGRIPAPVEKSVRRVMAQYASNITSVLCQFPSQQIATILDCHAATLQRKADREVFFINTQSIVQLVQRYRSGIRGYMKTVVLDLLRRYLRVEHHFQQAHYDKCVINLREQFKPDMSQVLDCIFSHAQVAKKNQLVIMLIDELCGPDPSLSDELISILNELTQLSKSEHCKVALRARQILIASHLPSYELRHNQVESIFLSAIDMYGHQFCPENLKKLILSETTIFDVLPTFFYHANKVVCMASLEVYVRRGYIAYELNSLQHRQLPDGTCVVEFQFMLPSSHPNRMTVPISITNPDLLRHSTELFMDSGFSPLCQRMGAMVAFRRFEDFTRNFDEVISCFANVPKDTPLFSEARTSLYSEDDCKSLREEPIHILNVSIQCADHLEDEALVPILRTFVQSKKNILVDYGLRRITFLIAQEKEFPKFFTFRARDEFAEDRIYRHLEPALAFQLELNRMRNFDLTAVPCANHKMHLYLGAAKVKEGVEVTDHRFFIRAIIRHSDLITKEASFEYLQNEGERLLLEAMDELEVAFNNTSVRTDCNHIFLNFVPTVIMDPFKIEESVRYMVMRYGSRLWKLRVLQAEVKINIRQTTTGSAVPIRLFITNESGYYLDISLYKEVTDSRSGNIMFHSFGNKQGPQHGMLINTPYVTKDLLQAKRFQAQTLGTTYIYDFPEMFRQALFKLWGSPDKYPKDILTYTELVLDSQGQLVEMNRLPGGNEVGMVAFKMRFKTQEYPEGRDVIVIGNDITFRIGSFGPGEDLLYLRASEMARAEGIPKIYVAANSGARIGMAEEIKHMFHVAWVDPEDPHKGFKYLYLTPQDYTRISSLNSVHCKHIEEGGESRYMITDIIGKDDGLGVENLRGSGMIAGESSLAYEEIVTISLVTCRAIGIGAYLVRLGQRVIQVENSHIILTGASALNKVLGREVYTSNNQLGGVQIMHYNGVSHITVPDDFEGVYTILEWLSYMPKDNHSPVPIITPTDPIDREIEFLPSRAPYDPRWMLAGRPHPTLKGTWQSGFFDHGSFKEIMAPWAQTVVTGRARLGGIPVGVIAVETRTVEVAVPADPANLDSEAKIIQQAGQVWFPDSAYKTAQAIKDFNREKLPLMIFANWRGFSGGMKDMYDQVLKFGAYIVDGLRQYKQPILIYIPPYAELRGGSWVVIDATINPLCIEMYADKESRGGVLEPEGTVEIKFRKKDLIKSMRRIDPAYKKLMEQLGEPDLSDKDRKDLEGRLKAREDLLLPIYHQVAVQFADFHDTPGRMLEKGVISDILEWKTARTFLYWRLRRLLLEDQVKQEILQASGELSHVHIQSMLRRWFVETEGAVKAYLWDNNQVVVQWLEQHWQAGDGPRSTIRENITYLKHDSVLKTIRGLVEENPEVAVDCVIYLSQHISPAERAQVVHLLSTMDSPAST

For `Cc1nc2ccc(C(=O)N3CCC4(CC3)CC(=O)c3c(cnn3C(C)C)C4)cc2[nH]1` [Example 1, 1-isopropyl-1′-(2-methyl-1H-benzo[d]imidazole-5-carbonyl)-4,6-dihydrospiro[indazole-5,4′-piperidin]-7(1H)-one], the IC50 (CYP1A2) was over 30000 nM, the IC50 [1] was 45 nM and the “median Tmax” value ([2]; fasted state) was 1 to 2 h. For the same compound, the “median Tmax” value ([2]; fed state) was 3 to 4 h, the maximum tolerated dose ([2]; single doses up to 800 mg, repeated doses up to 400 mg/day) was “not established” and the IC50 (hACC1) was 11 nM. For the same compound, the IC50 [3] was 679 nM, the IC50 (hACC2) was 27 nM and the IC50 (CYP2C8) was over 30000 nM.

In the case of `CC(C)n1ncc2c1C(=O)CC1(CCN(C(=O)c3ccc4ccc(N)nc4c3)CC1)C2` [Example 3, 1′-(2-aminoquinoline-7-carbonyl)-1-isopropyl-4,6-dihydrospiro[indazole-5,4′-piperidin]-7(1H)-one], the IC50 (hACC1) is reported as 5 nM, the IC50 [3] is reported as 90 nM and the “incorporation of 14C-acetate into free cholesterol” value ([3]; SZ95 cells, TLC, vs. vehicle) is reported as “did not alter”. For the same compound, the “incorporation of 14C-acetate into SZ95 cell lipid species containing or comprised of fatty acids” value ([3]; TLC, cholesterol esters, triglycerides, free fatty acids, diglycerides, monoglyceride, phospholipid, vs. vehicle) was “clear inhibition” and the IC50 (hACC2) was 5 nM.
